Our source for the EC50 values is patent US20250034170A1, “SMALL MOLECULE MODULATORS OF GLUCOCEREBROSIDASE ACTIVITY AND USES THEREOF” (Vanqua Bio, Inc., priority 2021, published 2025).

This test addresses T1, GCase (Homo sapiens, UniProt P04062).
T1 construct: endogenous in cells; host or cells: HeLa cells
T1 sequence (P04062 40-536): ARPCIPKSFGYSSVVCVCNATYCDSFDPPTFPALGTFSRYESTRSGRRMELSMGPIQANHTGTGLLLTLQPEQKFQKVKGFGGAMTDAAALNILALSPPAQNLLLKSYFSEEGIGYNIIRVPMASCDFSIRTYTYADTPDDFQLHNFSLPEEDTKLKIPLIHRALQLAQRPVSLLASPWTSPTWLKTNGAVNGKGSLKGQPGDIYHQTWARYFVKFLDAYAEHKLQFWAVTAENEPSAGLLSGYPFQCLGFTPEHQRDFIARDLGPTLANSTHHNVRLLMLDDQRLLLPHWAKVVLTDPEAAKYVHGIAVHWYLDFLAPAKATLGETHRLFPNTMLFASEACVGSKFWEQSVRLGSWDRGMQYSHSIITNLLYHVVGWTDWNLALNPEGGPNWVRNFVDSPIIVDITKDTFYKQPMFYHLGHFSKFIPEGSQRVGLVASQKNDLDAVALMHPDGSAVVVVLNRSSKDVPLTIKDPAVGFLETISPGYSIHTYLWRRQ
Briefly: activation of GCase in a live cell PFB assay in HELA cells. In kind it is cell-based. The following applies: activation of GCase, EC50 ranges. Here is the method:
Exemplary compounds were evaluated for activation of GCase in a live cell PFB assay in HELA cells (essentially as described in Ysselstein et al., “LRRK2 kinase activity regulates lysosomal glucocerebrosidase in neurons derived from Parkinson's disease patients” Nature Communications (2019) 10:5570). […] EC50 ranges: A: <10 μM; B: >10-50 μM; C: >50-100 μM; D: >100 μM.
For the compound `CCN1C(=O)N(c2ccc(C(F)(F)F)nc2)C(=O)C12CCN(c1cnc3cnn(C4COC4)c3n1)CC2` [Cmpd 866], the EC50 lay within 10 to 50 µM.
As for `CC(C)N1C(=O)N(c2ccc(C(F)(F)F)nc2)C(=O)C12CCN(c1cnc3cnn(C4COC4)c3n1)CC2` [Cmpd 867], the figure is greater than 100 µM.
The value for `CCN1C(=O)N(c2ccc(C(F)(F)F)cc2)C(=O)C12CCN(c1cnc3cnn(CC(F)F)c3n1)CC2` [Cmpd 868] was 10 to 50 µM; that for `CCN1C(=O)N(c2ccc(C(F)(F)F)cc2)C(=O)C12CCN(c1cnc3cnn(C4COC4)c3n1)CC2` [Cmpd 869] was 10 to 50 µM.
The value for `CCN1C(=O)N(c2ccc(C(F)(F)F)nc2)C(=O)C12CCN(c1cnc3c(C)nn(C4COC4)c3n1)CC2` [Cmpd 870] was greater than 100 µM; that for `CCN1C(=O)N(c2ccc(C(F)(F)F)nc2)C(=O)C12CCN(c1cnc3c(C)nn(CC(F)F)c3n1)CC2` [Cmpd 871] was 10 to 50 µM; that for `CCN1C(=O)N(c2ccc(C(F)(F)F)cc2)C(=O)C12CCN(c1cnc3c(C)nn(CC(F)F)c3n1)CC2` [Cmpd 872] was less than 10 µM.
The compound `CCN1C(=O)N(c2ccc(C(F)(F)F)nc2)C(=O)C12CCN(c1ncc3cnn(CC(F)F)c3n1)CC2` [Cmpd 873] showed an EC50 of 10 to 50 µM.
As for `CCN1C(=O)N(c2ccc(C(F)(F)F)nc2)C(=O)C12CCN(c1ncc3c(C)nn(CC(F)F)c3n1)CC2` [Cmpd 874], the figure is less than 10 µM; as for `O=C1N(c2ccc(C(F)(F)F)nc2)C(=O)C2(CCN(c3ncc4cnn(CC(F)F)c4n3)CC2)N1CC(F)F` [Cmpd 875], less than 10 µM.
Compound `O=C1N(c2ccc(C(F)(F)F)nc2)C(=O)C2(CCN(c3cnc4cnn(CC(F)F)c4n3)CC2)N1CC(F)F` [Cmpd 876] displayed a half-maximal effective concentration (EC50) of 10 to 50 µM.
On to `O=C1N(c2ccc(C(F)(F)F)nc2)C(=O)C2(CCN(c3cnc4cnn(CC(F)F)c4n3)CC2)N1CCOC(F)(F)F` [Cmpd 877], for which the EC50 was less than 10 µM.
`CCN1C(=O)N(c2ccc(C(F)(F)F)nc2)C(=O)C12CCN(c1ncc3c(C)nn(C4COC4)c3n1)CC2` [Cmpd 878] registered an EC50 of 10 to 50 µM.
Take `CN1C(=O)N(c2ccc(C(F)(F)F)nc2)C(=O)C12CCN(c1cnc3cnn(CC(F)F)c3n1)CC2` [Cmpd 879]: the EC50 is less than 10 µM.
As for `O=C1N(c2ccc(C(F)(F)F)nc2)C(=O)C2(CCN(c3cnc4cnn(CC(F)F)c4n3)CC2)N1CCC1CC1` [Cmpd 880], the figure is less than 10 µM.
The value for `O=C1N(c2ccc(C(F)(F)F)nc2)C(=O)C2(CCN(c3cnc4cnn(CC(F)F)c4n3)CC2)N1CCCC(F)(F)F` [Cmpd 881] was less than 10 µM; that for `O=C1N(c2ccc(C(F)(F)F)nc2)C(=O)C2(CCN(c3cnc4cnn(CC(F)F)c4n3)CC2)N1Cc1cncc(F)c1` [Cmpd 883] was 10 to 50 µM.
The value for `Cc1nn(C2COC2)c2nc(N3CCC4(CC3)CCN(c3ccc(C(F)(F)F)nc3)C4=O)ncc12` [Cmpd 884] was 10 to 50 µM.
As for `Cc1nn(C2COC2)c2nc(N3CCC4(CC3)CCN(c3ccc(C(F)(F)F)nc3)C4=O)cnc12` [Cmpd 885], the EC50 fell in the range of 10 to 50 µM.
The value for `O=C1N(c2ccc(C(F)(F)F)nc2)CCC12CCN(c1cnc3cnn(C4COC4)c3n1)CC2` [Cmpd 886] was 10 to 50 µM; that for `Cc1nn(C2COC2)c2nc(N3CCC4(CCN(c5ccc(C(F)(F)F)nc5)C4)CC3)ncc12` [Cmpd 887] was 10 to 50 µM.
The value for `Cc1nn(C2COC2)c2nc(N3CCC4(CCN(c5ccc(C(F)(F)F)nc5)C4)CC3)cnc12` [Cmpd 888] was less than 10 µM.
Compound `CCn1ncc2cnc(N3CCC4(CC3)CC(=O)N(c3ccc(C(F)(F)F)nc3)C4)nc21` [Cmpd 889] showed an EC50 of less than 10 µM.
The value for `CCn1ncc2ncc(N3CCC4(CC3)CC(=O)N(c3ccc(C(F)(F)F)nc3)C4)nc21` [Cmpd 890] was less than 10 µM.
Consider `O=C1CC2(CCN(c3cnc4cnn(CC(F)F)c4n3)CC2)CN1c1ccc(Cl)nc1` [Cmpd 891], for which the EC50 was 10 to 50 µM.
For the compound `O=C1CC2(CCN(c3cnc4cnn(CC(F)F)c4n3)CC2)CN1c1cncc(Cl)c1` [Cmpd 893], the concentration giving a half-maximal response (EC50) was less than 10 µM.
`O=C1CC2(CCN(c3cnc4cnn(CC(F)F)c4n3)CC2)CN1Cc1cnc(OCC(F)(F)F)nc1` [Cmpd 894] returned an EC50 of 10 to 50 µM.
Regarding `O=C1CC2(CCN(c3cnc4cnn(CC(F)F)c4n3)CC2)CN1c1ccnc(C(F)(F)F)n1` [Cmpd 895], the 50% effective concentration (EC50) is less than 10 µM.
As for `O=C1N(c2ccnc(C(F)(F)F)n2)CCC12CCN(c1cnc3cnn(CC(F)F)c3n1)CC2` [Cmpd 896], the figure is less than 10 µM; as for `Cc1nn(CC(F)F)c2nc(N3CCC4(CC3)CCN(c3ccnc(C(F)(F)F)n3)C4=O)cnc12` [Cmpd 897], less than 10 µM; as for `Cc1nn(CC(F)F)c2nc(N3CCC4(CC3)CC(=O)N(c3ccnc(C(F)(F)F)n3)C4)cnc12` [Cmpd 898], less than 10 µM.
As for `Cc1nc(N2CC3(CCN(c4ncc5c(n4)n(C4COC4)c(=O)n5C)C3)C2)cc(C(F)(F)F)n1` [Cmpd 899], the figure is less than 10 µM.
As for `O=C1N(c2ccnc(C(F)(F)F)n2)CCC12CCN(c1ncc3cnn(CC(F)F)c3n1)CC2` [Cmpd 900], the figure is less than 10 µM; as for `O=C1CC2(CCN(c3ncc4cnn(CC(F)F)c4n3)CC2)CN1c1ccnc(C(F)(F)F)n1` [Cmpd 901], less than 10 µM.
The compound `Cc1nn(CC(F)F)c2nc(N3CCC4(CC3)CC(=O)N(c3ccnc(C(F)(F)F)n3)C4)ncc12` [Cmpd 903] displayed an EC50 of less than 10 µM.
As for `CCC1N(c2ccnc(C(F)(F)F)n2)C(=O)CC12CCN(c1cnc3cnn(CC(F)F)c3n1)CC2` (stereo not shown) [Cmpd 904], the figure is less than 10 µM; as for `CCC1N(c2cnc(C(F)(F)F)nc2)C(=O)CC12CCN(c1cnc3cnn(CC(F)F)c3n1)CC2` (stereo not shown) [Cmpd 905], 10 to 50 µM; as for `CCN1C(=O)N(c2ccnc(C(F)(F)F)n2)C(=O)C12CCN(c1cnc3cnn(CC(F)F)c3n1)CC2` [Cmpd 906], 10 to 50 µM.
`O=C1CC2(CCN(c3cnc4cnn(C5COC5)c4n3)CC2)CN1c1ccnc(C(F)(F)F)n1` [Cmpd 907] yielded an EC50 of less than 10 µM.
`CCN1C(=O)N(c2ccnc(C(F)(F)F)n2)C(=O)C12CCN(c1cnc3cnn(C4COC4)c3n1)CC2` [Cmpd 909] yielded a 50% effective concentration (EC50) of 10 to 50 µM.
The value for `O=C1CC2(CCN1c1ccc(C(F)(F)F)nc1)CN(c1cnc3cnn(CC(F)F)c3n1)C2` [Cmpd 910] was 10 to 50 µM; that for `O=C1CC2(CCN1c1cnc3cnn(CC(F)F)c3n1)CN(c1ccc(C(F)(F)F)cn1)C2` [Cmpd 911] was 10 to 50 µM; that for `O=C1CC2(CCN1c1ccc(C(F)(F)F)cn1)CN(c1cnc3cnn(CC(F)F)c3n1)C2` [Cmpd 912] was 10 to 50 µM.
Consider `O=C1CC2(CCN1c1cnc3cnn(CC(F)F)c3n1)CN(c1ccc(C(F)(F)F)nc1)C2` [Cmpd 913], for which the EC50 was in the range of 10 to 50 µM.
The compound `CC(c1cnc(C(F)(F)F)nc1)N1CC2(CCN(c3cnc4cnn(CC(F)F)c4n3)CC2)CC1=O` (stereo not shown) [Cmpd 914] had a 50% effective concentration (EC50) of 10 to 50 µM.
Compound `O=C1CC2(CCN(c3cnc4cnn(CC(F)F)c4n3)CC2)CN1Cc1ccnc(C(F)(F)F)n1` [Cmpd 915] showed a half-maximal effective concentration (EC50) of less than 10 µM.
On to `O=C1CC2(CCN(c3ncc4cnn(CC(F)F)c4n3)CC2)CN1c1cnc(C(F)(F)F)nc1` [Cmpd 916], for which the half-maximal effective concentration (EC50) was less than 10 µM.
With `O=C1CC2(CCN(c3ncc4cnn(CC(F)F)c4n3)CC2)CN1Cc1cnc(C(F)(F)F)nc1` [Cmpd 917], the 50% effective concentration (EC50) fell in the range of 50 to 100 µM.
As to `O=C1CC2(CCN(c3cnc4cnn(CC(F)F)c4n3)CC2)CN1Cc1ccc(OC(F)(F)F)nc1` [Cmpd 918], the 50% effective concentration (EC50) was in the range of 10 to 50 µM.
For the compound `O=C1CC2(CCN(c3cnc4cnn(CC(F)F)c4n3)CC2)CN1Cc1ccnc(OC(F)F)c1` [Cmpd 919], the EC50 was less than 10 µM.
As for `O=C1CC2(CCN(c3ncc4cnn(CC(F)F)c4n3)CC2)CN1c1ccc(OCC(F)(F)F)nc1` [Cmpd 921], the figure is 10 to 50 µM.
As for `Cn1c(N2CCC3(CC2)CC(=O)N(c2cc(C(F)(F)F)ccn2)C3)nc2c(cnn2CC(F)F)c1=O` [Cmpd 922], the figure is less than 10 µM; as for `Cn1c(N2CCC3(CC2)CC(=O)N(c2ccnc(C(F)(F)F)c2)C3)nc2c(cnn2CC(F)F)c1=O` [Cmpd 923], less than 10 µM; as for `FC(F)(F)Cn1ncc2ncc(N3CCC4(CN(c5ccnc(C(F)(F)F)c5)C4)C3)nc21` [Cmpd 924], less than 10 µM.
On to `Cn1c(N2CCC3(CC2)CC(=O)N(c2ccc(C(F)(F)F)nc2)C3)nc2c(cnn2CC(F)F)c1=O` [Cmpd 925], for which the EC50 was in the range of 10 to 50 µM.
As for `Cn1c(N2CCC3(CC2)CC(=O)N(Cc2cnc(C(F)(F)F)nc2)C3)nc2c(cnn2CC(F)F)c1=O` [Cmpd 926], the figure is 10 to 50 µM; as for `O=C1N(Cc2cnc(C(F)(F)F)cn2)CCC12CCN(c1cnc3cnn(CC(F)F)c3n1)CC2` [Cmpd 927], 10 to 50 µM; as for `Cc1ncc(C(F)(F)F)nc1N1CCC2(CCN(c3cnc4cnn(CC(F)F)c4n3)CC2)C1=O` [Cmpd 928], 10 to 50 µM.
`COc1cc(N2CC3(CCN(c4cnc5cnn(CC(F)F)c5n4)C3)C2)ccn1` [Cmpd 929] registered a 50% effective concentration (EC50) of 10 to 50 µM.
As for `O=C1CC2(CCN(c3cnc4cnn(CC(F)F)c4n3)CC2)CN1Cc1cnc(C(F)(F)F)cn1` [Cmpd 930], the figure is 10 to 50 µM; as for `Cc1nn(C2COC2)c2nc(N3CCC4(CN(c5ccnc(C(F)(F)F)c5)C4)C3)cnc12` [Cmpd 931], 10 to 50 µM.
